Measured values published in the NIST ThermoML archive (doi:10.1016/j.jct.2003.09.008).
Several values for one entry are separate records, joined by “and”; a condition that tells them apart may be missing. Equal values may be shown once.

Assay: mn = molality of the nth substance listed, in mol/kg
Details: 298.15 K, 101.33 kPa, Liquid

C[N+](C)(C)C.[Br-] [tetramethylammonium bromide] + O
Details | mass density
m1 = 0.2579 | 1006.85 kg/m3
m1 = 0.258 | 1006.83 kg/m3
m1 = 0.2581 | 1006.9 kg/m3
m1 = 0.532 | 1016.59 kg/m3
m1 = 0.5322 | 1016.42 kg/m3
m1 = 0.5325 | 1016.59 kg/m3
m1 = 0.8105 | 1025.86 kg/m3
m1 = 0.8239 | 1026.24 kg/m3
m1 = 1.134 | 1036.07 kg/m3 and 1035.72 kg/m3
m1 = 1.839 | 1046.9 kg/m3

CCCC[N+](CCCC)(CCCC)CCCC.[Br-] [tetrabutylammonium bromide] + O
Details | mass density [kg/m3]
m1 = 0.0509 | 998.2
m1 = 0.1034 | 999.39
m1 = 0.2709 | 1003.18
m1 = 0.589 | 1010.09
m1 = 0.7318 | 1013.27

CC[N+](CC)(CC)CC.[Br-] [tetraethylammonium bromide] + O
Details | mass density
m1 = 0.102 | 1000.71 kg/m3
m1 = 0.4023 | 1010.95 kg/m3
m1 = 0.549 | 1015.83 kg/m3
m1 = 1.212 | 1035.35 kg/m3 and 1035.67 kg/m3
